# According to US8884023B2, “Pyrano [3,2-D][1,3]thiazole as glycosidase inhibitors” (priority 2011, dated 2014):
# Molecular target: T1, His-Tagged hOGA (human O-GlcNAcase) (Homo sapiens, UniProt O60502)
# T1 sequence (O60502 1-916): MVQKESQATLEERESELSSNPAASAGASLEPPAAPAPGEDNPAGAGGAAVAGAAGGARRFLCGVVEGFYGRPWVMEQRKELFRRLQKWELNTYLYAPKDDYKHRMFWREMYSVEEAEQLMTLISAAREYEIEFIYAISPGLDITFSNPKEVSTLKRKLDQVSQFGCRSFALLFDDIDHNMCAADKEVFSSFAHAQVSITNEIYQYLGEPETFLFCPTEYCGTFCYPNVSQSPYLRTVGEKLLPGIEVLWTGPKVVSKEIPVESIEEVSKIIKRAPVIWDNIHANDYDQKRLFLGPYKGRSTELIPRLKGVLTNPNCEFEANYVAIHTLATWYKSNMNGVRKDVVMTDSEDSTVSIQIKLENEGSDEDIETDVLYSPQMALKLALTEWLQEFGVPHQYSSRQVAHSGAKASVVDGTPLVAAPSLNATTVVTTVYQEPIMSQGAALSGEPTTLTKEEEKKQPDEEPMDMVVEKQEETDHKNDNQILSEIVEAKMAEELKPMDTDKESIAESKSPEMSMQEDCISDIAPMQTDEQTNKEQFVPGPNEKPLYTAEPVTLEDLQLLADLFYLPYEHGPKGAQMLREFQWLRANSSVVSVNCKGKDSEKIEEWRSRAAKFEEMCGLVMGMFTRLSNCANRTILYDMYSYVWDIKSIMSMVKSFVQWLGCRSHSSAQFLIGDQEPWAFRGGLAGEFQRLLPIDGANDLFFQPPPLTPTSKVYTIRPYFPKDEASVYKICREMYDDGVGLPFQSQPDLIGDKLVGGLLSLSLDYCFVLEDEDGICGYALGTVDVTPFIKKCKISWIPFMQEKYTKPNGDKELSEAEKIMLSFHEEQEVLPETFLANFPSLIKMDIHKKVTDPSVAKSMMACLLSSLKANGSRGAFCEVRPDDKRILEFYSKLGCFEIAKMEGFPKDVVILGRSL
# Experiment: biochemical
# Settings: not given
# Experimental: Human O-GlcNAcase Enzyme Inhibition Assay
# The following reaction components were added to a final volume of 10 μL in McIlvaine's Buffer (pH 6.5):
# 20 nM His-Tagged hOGA and 10 μM Fluoroscein mono-beta-D-(2-deoxy-2-N-acetyl) glucopyranoside (FL-GlcNAc; Marker Gene Technologies Inc, Part #M1485). […] The amount of fluorescence measured was plotted against the concentration of inhibitor to produce a sigmoidal dose response curve, from which an IC50 was calculated.
row,Structure (SMILES),IC50 [nM]
1,CCNC1=N[C@@H]2[C@@H](O)[C@H](O)[C@@H](C(O)Cc3ccccc3)O[C@@H]2S1 (stereo partly shown) [compound 52],100 to 500
2,CCNC1=N[C@@H]2[C@@H](O)[C@H](O)[C@@H](Cn3cc(COc4ccccc4CNC)nn3)O[C@@H]2S1 [compound 83],500 to 1000
3,CCNC1=N[C@@H]2[C@@H](O)[C@H](O)[C@@H](Cn3cc(COc4ccccc4C(C)O)nn3)O[C@@H]2S1 (stereo partly shown) [compound 85],100 to 500
4,CCNC1=N[C@@H]2[C@@H](O)[C@H](O)[C@@H](Cn3cc(Cn4c(C(F)(F)F)nc5ccccc54)nn3)O[C@@H]2S1 [compound 95],< 100
5,CCNC1=N[C@@H]2[C@@H](O)[C@H](O)[C@@H](Cn3cc(Cn4nc(C)nc4C)nn3)O[C@@H]2S1 [compound 96],< 100
6,CCNC1=N[C@@H]2[C@@H](O)[C@H](O)[C@@H](Cn3cc(Cn4ccnc4-c4cccs4)nn3)O[C@@H]2S1 [compound 97],< 100
7,CCNC1=N[C@@H]2[C@@H](O)[C@H](O)[C@@H](Cn3cc(-c4cn(S(=O)(=O)c5ccccc5)c5ccccc45)nn3)O[C@@H]2S1 [compound 98],< 100
8,CCNC1=N[C@@H]2[C@@H](O)[C@H](O)[C@@H](Cn3cc(C4(c5ccccc5)CCCC4)nn3)O[C@@H]2S1 [compound 100],100 to 500
9,CCNC1=N[C@@H]2[C@@H](O)[C@H](O)[C@@H](Cn3nnnc3C(=O)c3ccccc3)O[C@@H]2S1 [compound 105],> 1000
10,"CCNC1=N[C@@H]2[C@@H](OC)[C@H](OC)[C@@H](COC)O[C@@H]2S1 [compound no. 13, (3aR,5R,6S,7R,7aR)—N-ethyl-6,7-dimethoxy-5-(methoxymethyl)-5,6,7,7a-tetrahydro-3aH-pyrano[3,2-d][1,3]thiazol-2-amine]",> 1000
11,"CCNC1=N[C@@H]2[C@@H](OC)[C@H](O)[C@@H](CO)O[C@@H]2S1 [compound no. 15, (3aR,5R,6S,7R,7aR)-2-(ethylamino)-5-(hydroxymethyl)-7-methoxy-5,6,7,7a-tetrahydro-3aH-pyrano[3,2-d][1,3]thiazol-6-ol]",> 1000
12,"CCN(C(=O)OC(C)(C)C)C1=N[C@@H]2[C@@H](O)[C@H](O)[C@@H](COCc3ccccc3)O[C@@H]2S1 [compound no. 16, Tert-butyl {(3aR,5R,6S,7R,7aR)-5-[(benzyloxy)methyl]-6,7-dihydroxy-5,6,7,7a-tetrahydro-3aH-pyrano[3,2-d][1,3]thiazol-2-yl}ethylcarbamate]",> 1000
13,"CCNC1=N[C@@H]2[C@@H](O)[C@H](O)[C@@H](C(=O)NCCc3ccc(-c4ccccc4)cc3)O[C@@H]2S1 [compound no. 23, (3aR,5S,6S,7R,7aR)—N-(2-biphenyl-4-ylethyl)-2-(ethylamino)-6,7-dihydroxy-5,6,7,7a-tetrahydro-3aH-pyrano[3,2-d][1,3]thiazole-5-carboxamide]",> 1000
14,"CCNC1=N[C@@H]2[C@@H](O)[C@H](O)[C@@H](C(=O)N(C)C)O[C@@H]2S1 [compound no. 28, (3aR,5S,6S,7R,7aR)-2-(ethylamino)-6,7-dihydroxy-N,N-dimethyl-5,6,7,7a-tetrahydro-3aH-pyrano[3,2-d][1,3]thiazole-5-carboxamide]",> 1000
15,"CCNC1=N[C@@H]2[C@@H](O)[C@H](O)[C@@H](C(=O)Nc3ccccc3)O[C@@H]2S1 [compound no. 31, (3aR,5S,6S,7R,7aR)-2-(ethylamino)-6,7-dihydroxy-N-phenyl-5,6,7,7a-tetrahydro-3aH-pyrano[3,2-d][1,3]thiazole-5-carboxamide]",> 1000
16,"CCNC1=N[C@@H]2[C@@H](O)[C@H](O)[C@@H](C(=O)NCCc3ccc(Oc4ccccc4)cc3)O[C@@H]2S1 [compound no. 33, (3aR,5S,6S,7R,7aR)-2-(ethylamino)-6,7-dihydroxy-N-[2-(4-phenoxyphenyl)ethyl]-5,6,7,7a-tetrahydro-3aH-pyrano[3,2-d][1,3]thiazole-5-carboxamide]",> 1000
17,"CCNC1=N[C@@H]2[C@@H](O)[C@H](O)[C@@H](C=O)O[C@@H]2S1 [compound no. 47, (3aR,5S,6S,7R,7aR)-2-(ethylamino)-6,7-dihydroxy-5,6,7,7a-tetrahydro-3aH-pyrano[3,2-d][1,3]thiazole-5-carbaldehyde]",< 100
18,"CCN(C(=O)OC)C1=N[C@@H]2[C@@H](O)[C@H](O)[C@@H](CO)O[C@@H]2S1 [compound no. 49, Methyl-[(3aR,5R,6S,7R,7aR)-6,7-dihydroxy-5-(hydroxymethyl)-5,6,7,7a-tetrahydro-3aH-pyrano[3,2-d][1,3]thiazol-2-yl]ethylcarbamate]",< 100
19,"CCNC1=N[C@@H]2[C@@H](O)[C@H](O)[C@@H]([C@H](O)CCCc3ccccc3)O[C@@H]2S1 [compound no. 55, (3aR,5R,6S,7R,7aR)-2-(ethylamino)-5-((R)1-hydroxy-4-phenylbutyl)-5,6,7,7a-tetrahydro-3aH-pyrano[3,2-d][1,3]thiazole-6,7-diol]",> 1000
20,"CCNC1=N[C@@H]2[C@@H](O)[C@H](O)[C@@H]([C@@H](O)CCCc3ccccc3)O[C@@H]2S1 [compound no. 56, (3aR,5R,6S,7R,7aR)-2-(ethylamino)-5-((S)1-hydroxy-4-phenylbutyl)-5,6,7,7a-tetrahydro-3aH-pyrano[3,2-d][1,3]thiazole-6,7-diol]",100 to 500

# Same assay, conditions: read-out: OGA enzyme inhibition (IC50)
row,Structure (SMILES),IC50 [nM]
1,"CCNC1=N[C@@H]2[C@@H](O)[C@H](O)[C@@H](Cn3cc(COC)nn3)O[C@@H]2S1 [compound 11, (3aR,5R,6S,7R,7aR)-2-(ethylamino)-5-{[4-(methoxymethyl)-1H-1,2,3-triazol-1-yl]methyl}-5,6,7,7a-tetrahydro-3aH-pyrano[3,2-d][1,3]thiazole-6,7-diol]",100 to 500
2,CCNC1=N[C@@H]2[C@@H](O)[C@H](O)[C@@H](Cn3cc(C4(c5ccccc5)CC4)nn3)O[C@@H]2S1 [compound 99],< 100
3,CCNC1=N[C@@H]2[C@@H](O)[C@H](O)[C@@H](Cn3cc(COc4cccc(N)c4)nn3)O[C@@H]2S1 [compound 101],100 to 500
4,CCNC1=N[C@@H]2[C@@H](O)[C@H](O)[C@@H](Cn3cc(COc4ccccc4CN)nn3)O[C@@H]2S1 [compound 102],100 to 500
5,"CCNC1=N[C@@H]2[C@@H](O)[C@H](O)[C@@H](COCc3ccccc3)O[C@@H]2S1 [compound no. 8, (3aR,5R,6S,7R,7aR)-5-[(benzyloxy)methyl]-2-(ethylamino)-5,6,7,7a-tetrahydro-3aH-pyrano[3,2-d][1,3]thiazole-6,7-diol]",> 1000
6,"CCNC1=N[C@@H]2[C@@H](O)[C@H](O)[C@@H](C(=O)O)O[C@@H]2S1 [compound no. 9, (3aR,5S,6S,7R,7aR)-2-(ethylamino)-6,7-dihydroxy-5,6,7,7a-tetrahydro-3aH-pyrano[3,2-d]thiazole-5-carboxylic acid]",> 1000
7,"CCN(C)C1=N[C@@H]2[C@@H](O)[C@H](O)[C@@H](C(=O)O)O[C@@H]2S1 [compound no. 36, (3aR,5S,6S,7R,7aR)-2-[ethyl(methyl)amino]-6,7-dihydroxy-5,6,7,7a-tetrahydro-3aH-pyrano[3,2-d][1,3]thiazole-5-carboxylic acid]",> 1000
8,"CCNC1=N[C@@H]2[C@@H](O)[C@H](O)[C@@H](C(=O)OC)O[C@@H]2S1 [compound no. 42, Methyl-(3aR,5S,6S,7R,7aR)-2-(ethylamino)-6,7-dihydroxy-5,6,7,7a-tetrahydro-3aH-pyrano[3,2-d][1,3]thiazole-5-carboxylate]",> 1000
9,"CCNC1=N[C@@H]2[C@@H](O)[C@H](O)[C@@H](C(=O)N(C)OC)O[C@@H]2S1 [compound no. 45, (3aR,5S,6S,7R,7aR)-2-(ethylamino)-6,7-dihydroxy-N-methoxy-N-methyl-5,6,7,7a-tetrahydro-3aH-pyrano[3,2-d][1,3]thiazole-5-carboxamide]",> 1000
10,"CCNC1=N[C@@H]2[C@@H](O)[C@H](O)[C@@H](CNCc3ccccc3)O[C@@H]2S1 [compound no. 48, (3aR,5R,6S,7R,7aR)-5-[(benzylamino)methyl]-2-(ethylamino)-5,6,7,7a-tetrahydro-3aH-pyrano[3,2-d][1,3]thiazole-6,7-diol]",500 to 1000
11,"CCNC1=N[C@@H]2[C@@H](O)[C@H](O)[C@@H]([C@H](O)CCc3ccccc3)O[C@@H]2S1 [compound no. 54, (3aR,5R,6S,7R,7aR)-2-Ethylamino-5-((R)-1-hydroxy-3-phenyl-propyl)-5,6,7,7a-tetrahydro-3aH-pyrano[3,2-d]thiazole-6,7-diol]",> 1000
